What was measured:
Design in all cases: scale not given: the % may be the effect or the level left
[1] = molecular target: T1, Mitogen-activated protein kinase kinase kinase 19 (Homo sapiens) (UniProt Q56UN5); experiment: Inhibition of human YSK4/MAP3K19 assessed as enzyme activity at 1 uM using myelin basic protein as substrate preincubated for 20 mins followed by [gamma-33P]-ATP addition and measured after 120 mins by radiometric Hot-SpotSM Kinase assay relative to control
T1 sequence (whole entry): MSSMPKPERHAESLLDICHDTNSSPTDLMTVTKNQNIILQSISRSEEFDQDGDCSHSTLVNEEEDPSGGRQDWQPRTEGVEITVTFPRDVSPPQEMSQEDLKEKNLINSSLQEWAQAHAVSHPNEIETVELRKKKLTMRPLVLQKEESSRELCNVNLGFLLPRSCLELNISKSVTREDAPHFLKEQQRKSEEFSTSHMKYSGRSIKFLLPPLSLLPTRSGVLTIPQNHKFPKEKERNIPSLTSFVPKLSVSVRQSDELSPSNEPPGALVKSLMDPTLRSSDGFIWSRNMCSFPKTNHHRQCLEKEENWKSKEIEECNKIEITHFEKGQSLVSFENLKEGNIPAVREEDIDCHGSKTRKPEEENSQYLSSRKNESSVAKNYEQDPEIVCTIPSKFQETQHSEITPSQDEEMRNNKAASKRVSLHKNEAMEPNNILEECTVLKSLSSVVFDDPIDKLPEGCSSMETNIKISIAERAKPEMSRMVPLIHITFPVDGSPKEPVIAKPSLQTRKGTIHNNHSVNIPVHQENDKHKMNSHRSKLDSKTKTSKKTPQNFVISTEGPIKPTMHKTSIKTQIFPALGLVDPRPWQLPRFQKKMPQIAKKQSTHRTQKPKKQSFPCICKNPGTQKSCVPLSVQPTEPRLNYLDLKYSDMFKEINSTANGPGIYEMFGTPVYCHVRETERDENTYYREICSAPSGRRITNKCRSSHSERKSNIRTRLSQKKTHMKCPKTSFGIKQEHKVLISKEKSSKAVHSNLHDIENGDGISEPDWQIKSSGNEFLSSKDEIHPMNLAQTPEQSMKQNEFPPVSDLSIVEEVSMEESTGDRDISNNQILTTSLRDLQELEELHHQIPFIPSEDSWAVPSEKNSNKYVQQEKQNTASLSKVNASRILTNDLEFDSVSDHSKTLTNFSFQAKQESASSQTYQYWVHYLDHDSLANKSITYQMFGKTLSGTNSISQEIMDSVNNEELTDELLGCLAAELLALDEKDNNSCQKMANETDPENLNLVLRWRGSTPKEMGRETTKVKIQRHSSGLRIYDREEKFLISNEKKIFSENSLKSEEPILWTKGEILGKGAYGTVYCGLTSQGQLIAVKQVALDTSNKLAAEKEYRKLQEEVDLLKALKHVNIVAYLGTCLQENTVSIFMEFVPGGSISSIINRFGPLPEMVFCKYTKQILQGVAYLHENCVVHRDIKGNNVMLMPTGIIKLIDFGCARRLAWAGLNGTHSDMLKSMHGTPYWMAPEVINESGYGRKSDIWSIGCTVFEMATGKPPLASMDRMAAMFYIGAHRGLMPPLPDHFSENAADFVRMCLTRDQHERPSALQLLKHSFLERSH

[2] = molecular target: T2, Rhodopsin kinase GRK1 (Homo sapiens) (UniProt Q15835); experiment: Inhibition of human GRK1 assessed as enzyme activity at 1 uM using casein as substrate preincubated for 20 mins followed by [gamma-33P]-ATP addition and measured after 120 mins by radiometric Hot-SpotSM Kinase assay relative to control
T2 sequence (whole entry): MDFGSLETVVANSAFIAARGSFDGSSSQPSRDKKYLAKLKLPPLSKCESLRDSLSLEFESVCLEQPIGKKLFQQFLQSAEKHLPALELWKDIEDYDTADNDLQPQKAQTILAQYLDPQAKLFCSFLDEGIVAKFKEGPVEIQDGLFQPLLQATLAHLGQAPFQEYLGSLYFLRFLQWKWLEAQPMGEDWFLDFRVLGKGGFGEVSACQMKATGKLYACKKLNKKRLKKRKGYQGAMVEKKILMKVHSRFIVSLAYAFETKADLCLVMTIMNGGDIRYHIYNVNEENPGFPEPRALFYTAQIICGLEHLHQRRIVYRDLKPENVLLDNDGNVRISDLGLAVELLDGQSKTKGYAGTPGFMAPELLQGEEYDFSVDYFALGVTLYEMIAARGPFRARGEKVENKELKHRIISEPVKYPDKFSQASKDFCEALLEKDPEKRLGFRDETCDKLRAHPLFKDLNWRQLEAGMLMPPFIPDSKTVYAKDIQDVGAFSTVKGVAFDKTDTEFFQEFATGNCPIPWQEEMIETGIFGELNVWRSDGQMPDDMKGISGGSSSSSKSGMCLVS

[3] = molecular target: T3, Serine/threonine-protein kinase D3 (Homo sapiens) (UniProt O94806); experiment: Inhibition of human PKCnu assessed as enzyme activity at 1 uM using KKLNRTLSVA as substrate preincubated for 20 mins followed by [gamma-33P]-ATP addition and measured after 120 mins by radiometric Hot-SpotSM Kinase assay relative to control
T3 sequence (whole entry): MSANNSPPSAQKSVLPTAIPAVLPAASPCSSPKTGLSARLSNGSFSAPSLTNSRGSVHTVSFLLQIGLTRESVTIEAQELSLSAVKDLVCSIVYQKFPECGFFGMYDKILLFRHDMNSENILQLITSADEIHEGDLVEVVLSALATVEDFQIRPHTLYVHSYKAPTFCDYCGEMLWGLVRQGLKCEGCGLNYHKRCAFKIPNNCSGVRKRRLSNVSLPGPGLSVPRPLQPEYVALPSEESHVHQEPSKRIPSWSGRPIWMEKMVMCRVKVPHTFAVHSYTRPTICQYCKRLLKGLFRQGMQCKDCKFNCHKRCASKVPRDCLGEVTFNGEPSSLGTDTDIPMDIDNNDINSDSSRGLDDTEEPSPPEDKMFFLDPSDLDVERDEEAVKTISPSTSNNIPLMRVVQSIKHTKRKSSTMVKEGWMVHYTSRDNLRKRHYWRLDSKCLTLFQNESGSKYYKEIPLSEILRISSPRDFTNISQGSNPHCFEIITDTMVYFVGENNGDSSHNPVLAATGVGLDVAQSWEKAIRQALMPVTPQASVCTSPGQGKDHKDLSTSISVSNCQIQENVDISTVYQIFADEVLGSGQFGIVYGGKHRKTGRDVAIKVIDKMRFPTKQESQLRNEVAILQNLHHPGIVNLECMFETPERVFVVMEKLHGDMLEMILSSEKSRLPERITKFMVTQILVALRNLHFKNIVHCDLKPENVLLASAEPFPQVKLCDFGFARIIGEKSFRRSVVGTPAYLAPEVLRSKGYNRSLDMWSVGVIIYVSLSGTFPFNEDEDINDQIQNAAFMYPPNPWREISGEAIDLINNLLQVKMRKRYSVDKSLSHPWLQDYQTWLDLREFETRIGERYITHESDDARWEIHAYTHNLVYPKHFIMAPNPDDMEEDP

Row | SMILES | Activity [1] | Activity [2] | Activity [3]
1 | CC[C@H](Nc1ncnc2[nH]cnc12)c1nc2cccc(F)c2c(=O)n1-c1ccccc1 | 90.5% | 104% | 85.5%
2 | CC(C)Oc1ccc(-c2nn([C@@H](C)c3oc4ccc(F)cc4c(=O)c3-c3cccc(F)c3)c3ncnc(N)c23)cc1F [UMBRALISIB] | 92.4% | 98.7% | 98.4%
3 | C[C@H](Nc1ncnc2nc[nH]c12)c1cc2cccc(Cl)c2c(=O)n1-c1ccccc1 | 91.6% | 102% | 94.8%
